Reference: ChEMBL document CHEMBL1130490, “The Role of 4-phosphonodifluoromethyl- and 4-phosphono-phenylalanine in the selectivity and cellular uptake of SH2 domain ligands” (Bioorg Med Chem Lett, 1997)
Where a SMILES comes first, the peptide text is derived from it. [ ]: non-standard residue; d: D form. pY = N[C@@H](Cc1ccc(OP(=O)(O)O)cc1)C(=O)O

Legend:
[1] = target: T1, Tyrosine-protein kinase ABL1 (Homo sapiens, UniProt P00519); experiment: Inhibition of [35S]-labeled SH2-GST Abl binding to the phospho-PDGF receptor intracellular domain
T1 sequence (P00519 whole entry, the tested form may be a part): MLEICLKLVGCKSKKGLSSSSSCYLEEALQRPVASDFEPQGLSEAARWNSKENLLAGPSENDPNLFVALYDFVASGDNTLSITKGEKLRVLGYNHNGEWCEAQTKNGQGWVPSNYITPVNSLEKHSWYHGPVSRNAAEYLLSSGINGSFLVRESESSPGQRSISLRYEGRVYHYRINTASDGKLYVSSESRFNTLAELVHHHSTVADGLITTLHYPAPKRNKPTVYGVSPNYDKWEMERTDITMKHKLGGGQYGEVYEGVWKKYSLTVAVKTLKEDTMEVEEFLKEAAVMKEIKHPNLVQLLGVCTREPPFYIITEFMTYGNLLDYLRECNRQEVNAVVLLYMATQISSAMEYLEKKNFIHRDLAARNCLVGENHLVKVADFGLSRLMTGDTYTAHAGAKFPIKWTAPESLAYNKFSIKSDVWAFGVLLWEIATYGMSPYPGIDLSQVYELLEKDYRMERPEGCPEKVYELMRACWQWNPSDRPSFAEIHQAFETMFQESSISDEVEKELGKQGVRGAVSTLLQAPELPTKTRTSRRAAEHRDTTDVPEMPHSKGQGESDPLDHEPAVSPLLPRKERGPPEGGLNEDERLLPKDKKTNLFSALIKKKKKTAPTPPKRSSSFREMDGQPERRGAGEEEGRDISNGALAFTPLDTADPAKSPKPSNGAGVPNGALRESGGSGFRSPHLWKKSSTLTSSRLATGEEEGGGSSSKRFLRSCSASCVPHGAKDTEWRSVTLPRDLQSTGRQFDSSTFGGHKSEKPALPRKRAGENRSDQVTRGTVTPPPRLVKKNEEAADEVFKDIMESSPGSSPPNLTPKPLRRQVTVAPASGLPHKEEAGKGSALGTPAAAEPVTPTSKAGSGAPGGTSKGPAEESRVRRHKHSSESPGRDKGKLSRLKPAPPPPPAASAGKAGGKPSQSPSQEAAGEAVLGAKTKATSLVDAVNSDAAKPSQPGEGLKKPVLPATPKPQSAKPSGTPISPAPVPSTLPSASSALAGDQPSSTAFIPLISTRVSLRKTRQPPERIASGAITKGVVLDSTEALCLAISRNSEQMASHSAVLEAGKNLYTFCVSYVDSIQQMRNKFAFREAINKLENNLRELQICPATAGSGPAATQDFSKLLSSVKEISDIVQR

[2] = target: T1, Tyrosine-protein kinase ABL1; experiment: Radioligand displacement assay for the binding of [125I]Glu-Pro-Gln-pTyr-Glu-Glu-Ile-Pro-Ile-Tyr-Leu to ABL SH2 domain
Mus musculus = organism: Mus musculus; experiment: Uptake rate for compound into Balbc3T3 cells normalized to 100 uM was measured; type: functional

Compound | IC50 [1] | IC50 [2] | Uptake rate (nM min-1 cm**-2) (Mus musculus)
CC[C@H](C)[C@H](NC(=O)[C@H](CCC(=O)O)NC(=O)[C@H](CCC(=O)O)NC(=O)[C@H](Cc1ccc(OP(=O)(O)O)cc1)NC(C)=O)C(=O)N[C@@H](CCC(=O)O)C(=O)O (Ac-[pY]EEIE-OH) | 15 µM | 7.9 µM | 
CC[C@H](NC(=O)[C@H](Cc1ccc(P(=O)(OCOC(=O)C(C)(C)C)OCOC(=O)C(C)(C)C)cc1)NC(C)=O)C(=O)N(C)CCCC1CCCCC1 |  |  | 6.6
CCOP(=O)(OCC)C(F)(F)c1ccc(C[C@H](NC(C)=O)C(=O)N[C@@H](CCC(=O)OC(C)(C)C)C(=O)N(C)CCCC2CCCCC2)cc1 |  |  | 3.2
CC[C@H](NC(=O)[C@H](Cc1ccc(C(F)(F)P(=O)(O)OCOC(=O)C(C)(C)C)cc1)NC(C)=O)C(=O)N(C)CCCC1CCCCC1 |  |  | 0.01
CCOP(=O)(OCC)c1ccc(C[C@H](NC(C)=O)C(=O)N[C@@H](CC)C(=O)N(C)CCCC2CCCCC2)cc1 |  |  | 0.092
CCOP(=O)(OCC)C(F)(F)c1ccc(C[C@H](NC(C)=O)C(=O)N[C@@H](CCC(=O)O)C(=O)N(C)CCCC2CCCCC2)cc1 |  |  | > 0.002
